According to US5202312A, “Imidazole-containing peptides having immunomodulatory activity” (Tanabe Seiyaku Co., Ltd., priority 1988, dated 1993):
Where a SMILES comes first, the peptide text is derived from it.

Tests used:
[1] = system: picryl chloride-induced delayed type hypersensitivity; experiment: Inhibitory effect on picryl chloride-induced delayed type hypersensitivity (ear swelling); assay type: in vivo; details: BALB/C female mice, oral, once a day for 7 days, dose 10 mg/kg
Procedure: EXPERIMENT 2 Inhibitory effect on picryl chloride-induced delayed type
BALB/C female mice (10-week-old) were sensitized by spreading one ml of an ethanol solution containing 7 w/v % of picryl chloride to abdominal skin of the mice. In a "test group", a test compound was administered orally to the mice a day for 7 days from the day of sensitization.
7 Days after the sensitization, 10 μl of an olive oil solution containing 1 w/v % of picryl chloride was spread to both side skin of left external ear. 24 Hours later, the mice was sacrificed and the thickness of both ears was immediately measured.
The inhibition (%) of swelling of exterernal ear was calculated according to the following formula: [formula]

[2] = Immunomodulatory effect (general statement, no method)

Structure (SMILES)	Inhibition (%) of swelling of external ear [1] [%]	immunomodulatory effect [2]
COC(=O)[C@H](Cc1c[nH]cn1)NC(=O)[C@H](Cc1ccccc1)NC(=O)N(Cc1ccccc1)NC(=O)OC(C)(C)C [Example 13, 3-tert-butoxycarbonyl-2-benzylcarbazoyl-L-phenylalanyl-L-histidine methyl ester]	72.6	
COC(=O)[C@H](Cc1c[nH]cn1)NC(=O)[C@H](Cc1ccccc1)NC(=O)[C@H](Cc1ccccc1)NC(C)=O [N-acetyl-L-phenylalanyl-L-phenylalanyl-L-histidine methyl ester] (Ac-Phe-Phe-His-OMe)		scarcely an immunomodulatory effect
